Experimental findings from patent publication US7115622B2, “Amido ether substituted imidazoquinolines” (3M Innovative Properties Company, priority 2000, dated 2006) are described below.

In one assay the test system is interferon (α). In words: Cytokine Induction in Human Cells: interferon induction in PBMC. The note with it: 18 to 24 hours incubation, tested 30–0.014 μM, ELISA; for minimal effective concentration: read-out: Lowest Effective Concentration (μM) Interferon. It is filed as cell-based. More on the design: key to Lowest Effective Concentration (μM) Interferon: *: no induction was seen at any of the tested concentrations; generally the highest concentration tested was 10 or 30 μM. The source says:
(§1) An in vitro human blood cell system is used to assess cytokine induction. Activity is based on the measurement of interferon and tumor necrosis factor (α) (IFN and TNF, respectively) secreted into culture media as described by Testerman et. al. In “Cytokine Induction by the Immunomodulators Imiquimod and S-27609”, Journal of Leukocyte Biology, 58, 365–372 (September, 1995).
(§2) Whole blood from healthy human donors is collected by venipuncture into EDTA vacutainer tubes. Peripheral blood mononuclear cells (PBMC) are separated from whole blood by density gradient centrifugation using Histopaque®-1077. Blood is diluted 1:1 with Dulbecco's Phosphate Buffered Saline (DPBS) or Hank's Balanced Salts Solution (HBSS). The PBMC layer is collected and washed twice with DPBS or HBSS and resuspended at 4×10^6 cells/mL in RPMI complete. The PBMC suspension is added to 48 well flat bottom sterile tissue culture plates (Costar, Cambridge, Mass. or Becton Dickinson Labware, Lincoln Park, N.J.) containing an equal volume of RPMI complete media containing test compound.
(§3) The compounds are solubilized in dimethyl sulfoxide (DMSO). The DMSO concentration should not exceed a final concentration of 1% for addition to the culture wells. The compounds are generally tested at concentrations ranging from 30–0.014 μM.
(§4) The solution of test compound is added at 60 μM to the first well containing RPMI complete and serial 3 fold dilutions are made in the wells. The PBMC suspension is then added to the wells in an equal volume, bringing the test compound concentrations to the desired range (30–0.014 μM). The final concentration of PBMC suspension is 2×10^6 cells/mL. The plates are covered with sterile plastic lids, mixed gently and then incubated for 18 to 24 hours at 37° C. in a 5% carbon dioxide atmosphere.
(§5) Following incubation the plates are centrifuged for 10 minutes at 1000 rpm (˜200×g) at 4° C. The cell-free culture supernatant is removed with a sterile polypropylene pipet and transferred to sterile polypropylene tubes. Samples are maintained at −30 to −70° C. until analysis. The samples are analyzed for interferon (α) by ELISA and for tumor necrosis factor (α) by ELISA or IGEN Assay
Interferon (α) and Tumor Necrosis Factor (α) Analysis by ELISA Interferon (α) concentration is determined by ELISA using a Human Multi-Species kit from PBL Biomedical Laboratories, New Brunswick, N.J. Results are expressed in pg/mL.
(§6) The table below lists the lowest concentration found to induce interferon and the lowest concentration found to induce tumor necrosis factor for each compound.

For assay [1], the system named is tumor necrosis factor (α). In words: Cytokine Induction in Human Cells: tumor necrosis factor induction in PBMC. Format: cell-based. Details: key to Lowest Effective Concentration (μM) Tumor Necrosis Factor: *: no induction was seen at any of the tested concentrations; generally the highest concentration tested was 10 or 30 μM. The note with it: 18 to 24 hours incubation, tested 30–0.014 μM, ELISA or IGEN assay; for minimal effective concentration: read-out: Lowest Effective Concentration (μM) Tumor Necrosis Factor.
Text: as §1, §2, §3, §4, §5
Tumor necrosis factor (α) (TNF) concentration is determined using ELISA kits available from Biosource International, Camarillo, Calif. Alternately, the TNF concentration can be determined by Origen® M-Series Immunoassay and read on an IGEN M-8 analyzer from IGEN International, Gaithersburg, Md. The immunoassay uses a human TNF capture and detection antibody pair from Biosource International, Camarillo, Calif. Results are expressed in pg/mL.
as §6
Background: In an ELISA, binding on a coated surface is turned into a signal by an enzyme label.

As for `CCC(COCCC1CCN(C(=O)c2cccc(C#N)c2)CC1)n1cnc2c(N)nc3ccccc3c21` (centres unmarked) [Example 42], the minimal effective concentration (with interferon (α); in assay [1]) was 1 µM in each case.
In the case of `N#Cc1ccc(C(=O)NCCOCCn2cnc3c(N)nc4ccccc4c32)cc1` [Example 57], the minimal effective concentration in the assay on interferon (α) came out at 10 µM. Besides, the “Lowest Effective Concentration (μM) Tumor Necrosis Factor” value in assay [1] is given as “*”.
As for `Nc1nc2ccccc2c2c1ncn2CCOCCNC(=O)c1cccc(C(F)(F)F)c1` [Example 64], the minimal effective concentration in the assay on interferon (α) was determined as 10 µM. For the same compound, the “Lowest Effective Concentration (μM) Tumor Necrosis Factor” value in assay [1] is given as “*”.
For `CCCCc1nc2c(N)nc3ccccc3c2n1CCOCCNC(=O)c1ccc(Cl)nc1` [Example 28], the minimal effective concentration with interferon (α) was found to be 1 µM; in assay [1] it was 10 µM.
With `Nc1nc2ccccc2c2c1ncn2CCOCCNC(=O)c1ccc(Cl)nc1` [Example 61], the minimal effective concentration (in the assay with interferon (α); in assay [1]) was 10 µM throughout.
For `Nc1nc2ccccc2c2c1ncn2CCOCCNC(=O)Cc1cccs1` [Example 56], the minimal effective concentration came out at 1 µM in the assay on interferon (α) and 10 µM in assay [1].
With `CCC(COCCC1CCN(C(=O)c2ccc(Cl)nc2)CC1)n1cnc2c(N)nc3ccccc3c21` (centres unmarked) [Example 45], the minimal effective concentration in the assay with interferon (α) amounted to 0.1 µM; in assay [1] it was 1 µM.
For `CCCCc1nc2c(N)nc3ccccc3c2n1CCOCCNC(=O)c1ccc(F)cc1` [Example 21] the same measures were 1 µM and 10 µM.
In the case of `Nc1nc2ccccc2c2c1ncn2CCOCCNC(=O)c1ccc(OC(F)(F)F)cc1` [Example 66], the “Lowest Effective Concentration (μM) Interferon” value in the assay with interferon (α) is recorded as “*”. Besides, the “Lowest Effective Concentration (μM) Tumor Necrosis Factor” value in assay [1] is recorded as “*”.
With `CCCCc1nc2c(N)nc3ccccc3c2n1CCOCCNC(=O)Cc1ccccc1` [Example 20], the figures for the minimal effective concentration (in the assay with interferon (α); in assay [1]) were 0.1 µM and 10 µM, respectively.
On to `CCC(COCCC1CCN(C(=O)C2CC2)CC1)n1cnc2c(N)nc3ccccc3c21` (centres unmarked) [Example 35], for which the minimal effective concentration with interferon (α) came to 0.1 µM; in assay [1], 1 µM.
Turning to `CN(C(=O)CCCCOCCn1cnc2c(N)nc3ccccc3c21)c1ccccc1` [Example 12, 5-[2-(4-amino-1H-imidazo[4,5-c]quinolin-1-yl)ethoxy]-N-methyl-N-phenylpentanamide], the minimal effective concentration in the assay with interferon (α) came to 3.33 µM. Moreover, the “Lowest Effective Concentration (μM) Tumor Necrosis Factor” value in assay [1] is listed as “*”.
Take `CCC(COCCC1CCN(C(=O)COCc2ccccc2)CC1)n1cnc2c(N)nc3ccccc3c21` (centres unmarked) [Example 48]: the figures for the minimal effective concentration (in the assay on interferon (α); in assay [1]) were 0.1 µM and 10 µM, respectively.
For `CCCCc1nc2c(N)nc3ccccc3c2n1CCOCCNC(=O)Cc1cccs1` [Example 22], the minimal effective concentration stood at 0.1 µM in the assay on interferon (α) and 10 µM in assay [1].
Turning to `CCCCc1nc2c(N)nc3ccccc3c2n1CCOCCNC(=O)c1cccc(C#N)c1` [Example 24], the minimal effective concentration with interferon (α) was determined as 1 µM; in assay [1] it was 10 µM.
For the compound `CCC(COCCC1CCN(C(=O)Cc2cccs2)CC1)n1cnc2c(N)nc3ccccc3c21` (centres unmarked) [Example 41], the minimal effective concentration with interferon (α) came out at 0.1 µM; in assay [1], 1 µM.
For `CCCCc1nc2c(N)nc3ccccc3c2n1CCOCCNC(=O)COCc1ccccc1` [Example 30] the same measures were 1 µM and 10 µM.
Consider `CCC(COCCC1CCN(C(=O)c2ccc(OC)cc2)CC1)n1cnc2c(N)nc3ccccc3c21` (centres unmarked) [Example 44], for which the minimal effective concentration (in the assay with interferon (α); in assay [1]) was 1 µM throughout.
For the compound `CCCCc1nc2c(N)nc3ccccc3c2n1CCOCCNC(=O)C1CCCCC1` [Example 19], the minimal effective concentration in the assay on interferon (α) was 1 µM; in assay [1], 10 µM.
Consider `CCCCc1nc2c(N)nc3ccccc3c2n1CCOCCNC(=O)C1CC1` [Example 15], for which the values for the minimal effective concentration (in the assay with interferon (α); in assay [1]) were 0.1 µM and 1 µM, respectively.
Regarding `CCC(COCCC1CCN(C(=O)c2ccc(F)cc2)CC1)n1cnc2c(N)nc3ccccc3c21` (centres unmarked) [Example 40], the minimal effective concentration (in the assay on interferon (α); in assay [1]) was 1 µM in each case.
In the case of `CCCCc1nc2c(N)nc3ccccc3c2n1CCOCCNC(=O)c1ccc(C#N)cc1` [Example 23], the figures for the minimal effective concentration (with interferon (α); in assay [1]) were 1 µM and 10 µM, respectively.
Take `CCC(COCCC1CCN(C(=O)c2ccc3ccccc3c2)CC1)n1cnc2c(N)nc3ccccc3c21` (centres unmarked) [Example 49]: the minimal effective concentration in the assay with interferon (α) stood at 1 µM; in assay [1], 10 µM.
With `CCC(COCCC1CCN(C(=O)c2ccccc2)CC1)n1cnc2c(N)nc3ccccc3c21` (centres unmarked) [Example 38], the values for the minimal effective concentration (in the assay with interferon (α); in assay [1]) were 1 µM and 10 µM, respectively.
`CCC(COCCC1CCN(C(=O)Cc2ccccc2)CC1)n1cnc2c(N)nc3ccccc3c21` (centres unmarked) [Example 39]: the figures for the minimal effective concentration (in the assay with interferon (α); in assay [1]) were 1 µM and 10 µM, respectively.
With `CCCCC(=O)NCCOCCn1c(CCCC)nc2c(N)nc3ccccc3c21` [Example 16], the minimal effective concentration is 0.1 µM with interferon (α) and 1 µM in assay [1].
With `Nc1nc2ccccc2c2c1ncn2CCOCCNC(=O)Cc1ccccc1` [Example 55], the figures for the minimal effective concentration (in the assay with interferon (α); in assay [1]) were 1 µM and 10 µM, respectively.
In the case of `CCCCC(=O)N1CCC(CCOCC(CC)n2cnc3c(N)nc4ccccc4c32)CC1` (centres unmarked) [Example 36], the minimal effective concentration (in the assay on interferon (α); in assay [1]) was 1 µM in each case.
As for `CCC(COCCC1CCN(C(=O)c2ccc(OC(F)(F)F)cc2)CC1)n1cnc2c(N)nc3ccccc3c21` (centres unmarked) [Example 51], the minimal effective concentration (in the assay on interferon (α); in assay [1]) was 10 µM throughout.
`CCC(COCCC1CCN(C(=O)C2CCCC2)CC1)n1cnc2c(N)nc3ccccc3c21` (centres unmarked) [Example 37]: the minimal effective concentration (in the assay with interferon (α); in assay [1]) was 1 µM each time.
On to `CCCCc1nc2c(N)nc3ccccc3c2n1CCOCCNC(=O)c1ccc(C(F)(F)F)cc1` [Example 33], for which the “Lowest Effective Concentration (μM) Interferon” value in the assay with interferon (α) was “*”. The minimal effective concentration in assay [1] stood at 10 µM.
Turning to `CCCCc1nc2c(N)nc3ccccc3c2n1CCOCCNC(=O)c1ccccc1` [Example 18], the figures for the minimal effective concentration (in the assay on interferon (α); in assay [1]) were 1 µM and 10 µM, respectively.
As to `COc1ccc(C(=O)NCCOCCn2cnc3c(N)nc4ccccc4c32)cc1` [Example 60], the minimal effective concentration (in the assay on interferon (α); in assay [1]) was 10 µM in each case.
For the compound `Nc1nc2ccccc2c2c1ncn2CCOCCNC(=O)C1CCCCC1` [Example 54], the minimal effective concentration (in the assay with interferon (α); in assay [1]) was 10 µM in each case.
Consider `Nc1nc2ccccc2c2c1ncn2CCOCCNC(=O)c1ccc(C(F)(F)F)cc1` [Example 65], for which, in the assay on interferon (α), the “Lowest Effective Concentration (μM) Interferon” value is recorded as “*”. For the same compound, the “Lowest Effective Concentration (μM) Tumor Necrosis Factor” value in assay [1] is recorded as “*”.
Take `CCCCc1nc2c(N)nc3ccccc3c2n1CCOCCNC(=O)c1cccc(OC)c1` [Example 26]: the minimal effective concentration amounted to 1 µM in the assay on interferon (α) and 10 µM in assay [1].
Regarding `Nc1nc2ccccc2c2c1ncn2CCOCCNC(=O)COCc1ccccc1` [Example 62], the minimal effective concentration in the assay with interferon (α) came to 1 µM; in assay [1], 10 µM.
